Source: patent publication US10336732B2, “1-heterocyclyl isochromanyl compounds and analogs for treating CNS disorders” (Sunovion Pharmaceuticals Inc., priority 2015, dated 2019)

system: mice; assay: Neuropharmacological assay (SmartCube), behavioral signature of compound-treated mice; assay type: in vivo; conditions: i.p. 15 min before behavioral test, most efficacious dose(s) of 3 doses
How it was run: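 Read-out is an automated video-based behavioral signature, scored as per-class probabilities (e.g., anxiolytic, antidepressant) against reference compounds. Dosing was i.p. at three doses, 15 min pre-test, in NMP, polyethylene glycol and propylene glycol. Values shown are from the most efficacious dose(s).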

Structure (SMILES) | AD: ADHD (probability that behavioral signature matches class) | AG: analgesic (probability that behavioral signature matches class) | AX: anxiolytic (probability that behavioral signature matches class) | CE: cognitive enhancer (probability that behavioral signature matches class) | DP: anti-depressant (probability that behavioral signature matches class) | HA: hallucinogen (probability that behavioral signature matches class) | MS: mood stabilizer (probability that behavioral signature matches class) | PS: anti-psychotic (probability that behavioral signature matches class) | SD: sedative hypnotic (probability that behavioral signature matches class) | UN: uncharacterized CNS activity (probability that behavioral signature matches class)
Fc1cccc2c1[C@@H]([C@@H]1CCN1)OCC2 [Compound I-84, (S)-2-((S)-8-fluoroisochroman-1-yl)azetidine] | + (LOQ ≤ + <5%) | + (LOQ ≤ + <5%) | ++ (5% ≤ ++ <25%) | + (LOQ ≤ + <5%) | ++ (5% ≤ ++ <25%) | + (LOQ ≤ + <5%) | ++ (5% ≤ ++ <25%) | ++++ (50% ≤ ++++) | ++ (5% ≤ ++ <25%) | + (LOQ ≤ + <5%)
c1ccc2c(c1)CCO[C@@H]2[C@@H]1COCCN1 [Compound I-75, (S)-3-((S)-isochroman-1-yl)morpholine] | + (LOQ ≤ + <5%) | + (LOQ ≤ + <5%) | ++ (5% ≤ ++ <25%) | ++ (5% ≤ ++ <25%) | +++ (25% ≤ +++ <50%) | + (LOQ ≤ + <5%) | ++ (5% ≤ ++ <25%) | ++ (5% ≤ ++ <25%) | ++ (5% ≤ ++ <25%) | + (LOQ ≤ + <5%)
Fc1cccc2c1CCO[C@@H]2[C@H]1CCCN1 [Compound I-16, (R)-2-((S)-5-fluoroisochroman-1-yl)pyrrolidine] | + (LOQ ≤ + <5%) | + (LOQ ≤ + <5%) | ++ (5% ≤ ++ <25%) | ++ (5% ≤ ++ <25%) | ++ (5% ≤ ++ <25%) | + (LOQ ≤ + <5%) | ++ (5% ≤ ++ <25%) | +++ (25% ≤ +++ <50%) | + (LOQ ≤ + <5%) | +++ (25% ≤ +++ <50%)
N#Cc1ccc2c(c1)[C@@H]([C@@H]1CCCN1)OCC2 [Compound I-39, (S)-1-((S)-pyrrolidin-2-yl)isochroman-7-carbonitrile] | + (LOQ ≤ + <5%) | ++ (5% ≤ ++ <25%) | ++ (5% ≤ ++ <25%) | ++ (5% ≤ ++ <25%) | + (LOQ ≤ + <5%) | + (LOQ ≤ + <5%) | + (LOQ ≤ + <5%) | + (LOQ ≤ + <5%) | + (LOQ ≤ + <5%) | ++ (5% ≤ ++ <25%)
N#Cc1ccc2c(c1)[C@H]([C@@H]1CCCN1)OCC2 [Compound I-40, (R)-1-((S)-pyrrolidin-2-yl)isochroman-7-carbonitrile] | + (LOQ ≤ + <5%) | + (LOQ ≤ + <5%) | ++ (5% ≤ ++ <25%) | ++ (5% ≤ ++ <25%) | ++ (5% ≤ ++ <25%) | + (LOQ ≤ + <5%) | + (LOQ ≤ + <5%) | +++ (25% ≤ +++ <50%) | + (LOQ ≤ + <5%) | + (LOQ ≤ + <5%)
CC1(C)Cc2ccccc2[C@H]([C@H]2CCCN2)O1 [Compound I-68, (R)-2-((R)-3,3-dimethylisochroman-1-yl)pyrrolidine] | + (LOQ ≤ + <5%) | + (LOQ ≤ + <5%) | + (LOQ ≤ + <5%) | + (LOQ ≤ + <5%) | + (LOQ ≤ + <5%) | + (LOQ ≤ + <5%) | + (LOQ ≤ + <5%) | + (LOQ ≤ + <5%) | + (LOQ ≤ + <5%) | + (LOQ ≤ + <5%)
CCN1CCC[C@H]1[C@@H]1OCCc2cc(F)ccc21 [Compound I-70, (S)-1-ethyl-2-((R)-6-fluoroisochroman-1-yl)pyrrolidine] | + (LOQ ≤ + <5%) | ++ (5% ≤ ++ <25%) | +++ (25% ≤ +++ <50%) | + (LOQ ≤ + <5%) | ++ (5% ≤ ++ <25%) | + (LOQ ≤ + <5%) | + (LOQ ≤ + <5%) | + (LOQ ≤ + <5%) | + (LOQ ≤ + <5%) | + (LOQ ≤ + <5%)
Cc1ccc2c(c1)[C@@H]([C@H]1CCCN1)OCC2 [Compound I-27, (R)-2-((S)-7-methylisochroman-1-yl)pyrrolidine] | + (LOQ ≤ + <5%) | ++ (5% ≤ ++ <25%) | +++ (25% ≤ +++ <50%) | ++ (5% ≤ ++ <25%) | ++ (5% ≤ ++ <25%) | + (LOQ ≤ + <5%) | ++ (5% ≤ ++ <25%) | ++ (5% ≤ ++ <25%) | + (LOQ ≤ + <5%) | + (LOQ ≤ + <5%)
c1ccc2c(c1)CCO[C@H]2[C@@H]1COCCN1 [Compound I-76, (S)-3-((R)-isochroman-1-yl)morpholine] | + (LOQ ≤ + <5%) | ++ (5% ≤ ++ <25%) | ++ (5% ≤ ++ <25%) | + (LOQ ≤ + <5%) | ++ (5% ≤ ++ <25%) | + (LOQ ≤ + <5%) | + (LOQ ≤ + <5%) | ++ (5% ≤ ++ <25%) | + (LOQ ≤ + <5%) | + (LOQ ≤ + <5%)
Fc1ccc2c(c1)[C@H]([C@@H]1CCN1)OCC2 [Compound I-86, (S)-2-((R)-7-fluoroisochroman-1-yl)azetidine] | + (LOQ ≤ + <5%) | +++ (25% ≤ +++ <50%) | +++ (25% ≤ +++ <50%) | ++ (5% ≤ ++ <25%) | ++ (5% ≤ ++ <25%) | + (LOQ ≤ + <5%) | + (LOQ ≤ + <5%) | +++ (25% ≤ +++ <50%) | ++ (5% ≤ ++ <25%) | ++ (5% ≤ ++ <25%)
Fc1ccc2c(c1)CO[C@@H]2[C@H]1CCCN1 [Compound I-120, (R)-2-((S)-5-fluoro-1,3-dihydroisobenzofuran-1-yl)pyrrolidine] | + (LOQ ≤ + <5%) | ++ (5% ≤ ++ <25%) | ++ (5% ≤ ++ <25%) | +++ (25% ≤ +++ <50%) | ++ (5% ≤ ++ <25%) | + (LOQ ≤ + <5%) | ++ (5% ≤ ++ <25%) | ++ (5% ≤ ++ <25%) | ++ (5% ≤ ++ <25%) | ++ (5% ≤ ++ <25%)

same assay, conditions: i.p. 15 min before behavioral test, most efficacious dose(s) of 3 doses

Structure (SMILES) | XG: anxiogenic (probability that behavioral signature matches class)
Fc1cccc2c1[C@@H]([C@@H]1CCN1)OCC2 [Compound I-84, (S)-2-((S)-8-fluoroisochroman-1-yl)azetidine] | + (LOQ ≤ + <5%)
c1ccc2c(c1)CCO[C@@H]2[C@@H]1COCCN1 [Compound I-75, (S)-3-((S)-isochroman-1-yl)morpholine] | + (LOQ ≤ + <5%)
Fc1cccc2c1CCO[C@@H]2[C@H]1CCCN1 [Compound I-16, (R)-2-((S)-5-fluoroisochroman-1-yl)pyrrolidine] | + (LOQ ≤ + <5%)
N#Cc1ccc2c(c1)[C@@H]([C@@H]1CCCN1)OCC2 [Compound I-39, (S)-1-((S)-pyrrolidin-2-yl)isochroman-7-carbonitrile] | + (LOQ ≤ + <5%)
N#Cc1ccc2c(c1)[C@H]([C@@H]1CCCN1)OCC2 [Compound I-40, (R)-1-((S)-pyrrolidin-2-yl)isochroman-7-carbonitrile] | + (LOQ ≤ + <5%)
CC1(C)Cc2ccccc2[C@H]([C@H]2CCCN2)O1 [Compound I-68, (R)-2-((R)-3,3-dimethylisochroman-1-yl)pyrrolidine] | + (LOQ ≤ + <5%)
CCN1CCC[C@H]1[C@@H]1OCCc2cc(F)ccc21 [Compound I-70, (S)-1-ethyl-2-((R)-6-fluoroisochroman-1-yl)pyrrolidine] | + (LOQ ≤ + <5%)
Cc1ccc2c(c1)[C@@H]([C@H]1CCCN1)OCC2 [Compound I-27, (R)-2-((S)-7-methylisochroman-1-yl)pyrrolidine] | + (LOQ ≤ + <5%)
c1ccc2c(c1)CCO[C@H]2[C@@H]1COCCN1 [Compound I-76, (S)-3-((R)-isochroman-1-yl)morpholine] | + (LOQ ≤ + <5%)
Fc1ccc2c(c1)[C@H]([C@@H]1CCN1)OCC2 [Compound I-86, (S)-2-((R)-7-fluoroisochroman-1-yl)azetidine] | + (LOQ ≤ + <5%)
Fc1ccc2c(c1)CO[C@@H]2[C@H]1CCCN1 [Compound I-120, (R)-2-((S)-5-fluoro-1,3-dihydroisobenzofuran-1-yl)pyrrolidine] | + (LOQ ≤ + <5%)
